From patent US9029337B2, “Modulation of factor 7 expression” (Isis Pharmaceuticals, Inc., priority 2007, dated 2015)
Strand notation (5' to 3'): a small letter for the sugar, then the base; units joined by * are phosphorothioate-linked, units joined directly phosphodiester-linked; [ ] holds rarer units or linkages, { } end groups; capitals alone tell only the bases. e = 2'-O-(2-methoxyethyl) (MOE); [5mC] = 5-methylcytosine; d = 2'-deoxy (DNA)

Tested on: human Factor 7 mRNA
Assay: Antisense inhibition of human Factor 7 mRNA in HepB3 cells, 50 nM antisense oligonucleotide, lipofectin
Assay type: cell-based
Details: for % Inhibition: lipofectin, approximately 24 hours; for % Inhibition of human Factor 7 mRNA levels: gapmers targeted to nucleobases 4868 to 4899 of SEQ ID NO: 1, Table 8
Procedure, shortened: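 4,000 cells/well; ~24 h exposure; RNA isolated; probe set RTS 2927; normalised to RIBOGREEN® total RNA; % inhibition vs untreated.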

[1] = oligonucleotides targeted to nucleobases 11830 to 11869 of SEQ ID NO: 1 (Table 9)
[2] = Table 1, 50 nM, relative to untreated control cells
[3] = 50 nM antisense oligonucleotide, Factor 7 mRNA by real-time RT-PCR (RTS 2927), relative to untreated control
[4] = oligonucleotides targeted to nucleobases 15098 to 15122 of SEQ ID NO: 1 (Table 12)
[5] = oligonucleotides targeted to nucleobases 13760 to 13789 of SEQ ID NO: 1 (Table 10)
[6] = oligonucleotides targeted to nucleobases 14707 to 14732 of SEQ ID NO: 1 (Table 11)

## 422092 (antisense eA*eT*eG*eG*eT*d[5mC]*dA*dG*dG*dG*d[5mC]*dT*dG*dG*dT*eT*eT*eT*eG*eG) [compound 422092]
[1]
  % Inhibition (human Factor 7 mRNA levels): 36%

## 407603 (antisense eT*eA*eA*eG*eA*dA*dA*dT*d[5mC]*d[5mC]*dA*dG*dA*dA*d[5mC]*eA*eG*e[5mC]*eT*eT) [compound 407603]
[2]
  % Inhibition: 54%

## 416529 (antisense eG*eG*eG*e[5mC]*eT*dG*dA*dG*dA*d[5mC]*dT*dG*dA*dG*dG*eT*e[5mC]*eA*eG*e[5mC]) [compound 416529]
[3]
  % Inhibition: 18%

## 422134 (antisense eG*e[5mC]*eA*e[5mC]*eA*d[5mC]*dA*dT*dG*dG*dA*dG*dT*d[5mC]*dA*eG*e[5mC]*eA*eT*e[5mC]) [compound 422134]
[4]
  % Inhibition (human Factor 7 mRNA levels): 67%

## 416547 (antisense eA*eT*eG*eA*eA*dA*dT*dT*d[5mC]*dT*dA*d[5mC]*d[5mC]*dT*dA*eA*eA*eG*eA*eT) [compound 416547]
[3]
  % Inhibition: 0%

## 407904 (antisense eG*eA*eA*eA*e[5mC]*dA*dG*dT*dG*dG*dG*d[5mC]*d[5mC]*dG*d[5mC]*eG*eG*eA*eG*eA) [compound 407904]
[2]
  % Inhibition: 83%

## 416450 (antisense eG*eG*eT*eT*eT*dG*d[5mC]*dT*dG*dG*d[5mC]*dA*dT*dT*dT*e[5mC]*eT*eT*eT*eT) [compound 416450]
[3]
  % Inhibition: 49%

## 422257 (antisense e[5mC]*e[5mC]*dA*d[5mC]*d[5mC]*d[5mC]*dG*d[5mC]*d[5mC]*dG*dG*d[5mC]*dT*d[5mC]*dT*eG*e[5mC]*eT*e[5mC]*eA) [compound 422257]
[5]
  % Inhibition (human Factor 7 mRNA levels): 65%

## 407897 (antisense eG*e[5mC]*eT*eT*eG*dG*dT*dG*d[5mC]*d[5mC]*d[5mC]*dG*dT*dG*dT*eG*eG*eT*e[5mC]*eA) [compound 407897]
[2]
  % Inhibition: 77%

## 422211 (antisense eA*e[5mC]*eA*dG*d[5mC]*dA*d[5mC]*dA*d[5mC]*dA*dT*dG*dG*dA*dG*dT*d[5mC]*eA*eG*e[5mC]) [compound 422211]
[4]
  % Inhibition (human Factor 7 mRNA levels): 42%

## 422201 (antisense eG*e[5mC]*e[5mC]*dT*dG*dA*dG*dG*d[5mC]*d[5mC]*dA*dG*d[5mC]*dA*dG*dA*dT*e[5mC]*eA*e[5mC]) [compound 422201]
[6]
  % Inhibition (human Factor 7 mRNA levels): 71%

## 407901 (antisense eT*eG*eG*eT*eG*dT*dT*dG*dA*dT*d[5mC]*dA*dG*dG*dG*eT*e[5mC]*e[5mC]*e[5mC]*e[5mC]) [compound 407901]
[2]
  % Inhibition: 89%

## 422153 (antisense e[5mC]*eA*eT*dG*d[5mC]*dA*dT*dG*dG*dT*dG*dA*dT*dG*d[5mC]*dT*dT*e[5mC]*eT*eG) [compound 422153]
Table 13 (microwalk), 50 nM
  % Inhibition: 67%

## 422181 (antisense eG*e[5mC]*e[5mC]*dA*d[5mC]*d[5mC]*d[5mC]*dG*d[5mC]*d[5mC]*dG*dG*d[5mC]*dT*d[5mC]*dT*dG*e[5mC]*eT*e[5mC]) [compound 422181]
[5]
  % Inhibition (human Factor 7 mRNA levels): 66%

## 422172 (antisense eT*eG*eG*d[5mC]*dT*dG*dA*dG*dG*dA*dG*dA*d[5mC]*dA*dA*dT*dG*eG*eT*e[5mC]) [compound 422172]
[1]
  % Inhibition (human Factor 7 mRNA levels): 39%

## 416474 (antisense eT*eG*eT*e[5mC]*eT*dG*d[5mC]*d[5mC]*dT*d[5mC]*d[5mC]*dA*dG*dG*dA*e[5mC]*eA*eA*e[5mC]*e[5mC]) [compound 416474]
[3]
  % Inhibition: 40%

## 416480 (antisense eA*eA*eG*eT*eG*dA*dG*dA*dG*d[5mC]*dT*dA*dA*dA*d[5mC]*eA*eA*e[5mC]*e[5mC]*eG) [compound 416480]
[3]
  % Inhibition: 25%

## 422099 (antisense eA*eG*eG*eA*eG*dA*d[5mC]*dA*dA*dT*dG*dG*dT*d[5mC]*dA*eG*eG*eG*e[5mC]*eT) [compound 422099]
[1]
  % Inhibition (human Factor 7 mRNA levels): 48%

## 422222 (antisense eA*eG*e[5mC]*d[5mC]*d[5mC]*dG*dA*dG*dT*dT*d[5mC]*dT*dG*d[5mC]*dA*dG*dG*eA*eG*e[5mC]) [compound 422222]
  % Inhibition of human Factor 7 mRNA levels: 55%

## 416424 (antisense eG*eA*eG*eA*e[5mC]*d[5mC]*dA*dT*dG*dA*dT*dG*dA*dA*dA*eT*e[5mC]*eT*e[5mC]*eT) [compound 416424]
[3]
  % Inhibition: 27%

## 422206 (antisense e[5mC]*eA*eG*d[5mC]*dA*dG*d[5mC]*d[5mC]*dT*dG*dA*dG*dG*d[5mC]*d[5mC]*dA*dG*e[5mC]*eA*eG) [compound 422206]
[6]
  % Inhibition (human Factor 7 mRNA levels): 65%

## 422101 (antisense eT*eG*eA*eG*eG*dA*dG*dA*d[5mC]*dA*dA*dT*dG*dG*dT*e[5mC]*eA*eG*eG*eG) [compound 422101]
[1]
  % Inhibition (human Factor 7 mRNA levels): 42%

## 407630 (antisense e[5mC]*eA*e[5mC]*eA*eT*dG*dG*dT*d[5mC]*dA*dG*dT*dG*dA*dG*eG*eA*e[5mC]*e[5mC]*eA) [compound 407630]
[2]
  % Inhibition: 29%

## 422157 (antisense eT*eG*eG*dT*d[5mC]*dA*dG*dG*dG*d[5mC]*dT*dG*dG*dT*dT*dT*dT*eG*eG*eA) [compound 422157]
[1]
  % Inhibition (human Factor 7 mRNA levels): 49%

## 422123 (antisense eG*eA*eG*e[5mC]*eG*d[5mC]*dG*dG*dA*dA*dG*dA*dA*dG*dG*eG*eA*e[5mC]*eG*eG) [compound 422123]
Table 6, 50 nM
  % Inhibition: 16%

## 416511 (antisense eT*eT*eG*e[5mC]*eT*dG*dG*dG*dA*dG*dG*dA*d[5mC]*dG*dA*eG*eG*e[5mC]*e[5mC]*eT) [compound 416511]
[3]
  % Inhibition: 35%

## 422271 (antisense e[5mC]*eT*dG*dA*dG*d[5mC]*dG*d[5mC]*dG*dG*dA*dA*dG*dA*dA*eG*eG*eG*eA*e[5mC]) [compound 422271]
Table 6, 50 nM
  % Inhibition: 32%

## 407955 (antisense eT*eG*eT*eG*eA*dA*dA*dT*dA*dT*d[5mC]*dA*dT*dT*dG*eA*e[5mC]*eA*eA*eG) [compound 407955]
[2]
  % Inhibition: 3%

## 407595 (antisense eT*e[5mC]*e[5mC]*eT*eG*dA*dG*dG*d[5mC]*d[5mC]*dT*dT*dA*dG*d[5mC]*eG*eA*e[5mC]*e[5mC]*e[5mC]) [compound 407595]
[2]
  % Inhibition: 71%

## 422191 (antisense eA*eG*e[5mC]*dG*d[5mC]*dG*dG*dA*dA*dG*dA*dA*dG*dG*dG*dA*d[5mC]*eG*eG*eA) [compound 422191]
Table 6, 50 nM
  % Inhibition: 27%

## 407605 (antisense eT*eT*eG*eA*eG*dG*d[5mC]*dA*d[5mC]*dA*d[5mC]*dT*dG*dG*dT*e[5mC]*e[5mC]*e[5mC]*e[5mC]*eA) [compound 407605]
[2]
  % Inhibition: 58%

## 422159 (antisense eA*eA*eT*dG*dG*dT*d[5mC]*dA*dG*dG*dG*d[5mC]*dT*dG*dG*dT*dT*eT*eT*eG) [compound 422159]
[1]
  % Inhibition (human Factor 7 mRNA levels): 45%

## 422107 (antisense eG*e[5mC]*eT*eG*eG*d[5mC]*dT*dG*dA*dG*dG*dA*dG*dA*d[5mC]*eA*eA*eT*eG*eG) [compound 422107]
[1]
  % Inhibition (human Factor 7 mRNA levels): 36%

## 422160 (antisense e[5mC]*eA*eA*dT*dG*dG*dT*d[5mC]*dA*dG*dG*dG*d[5mC]*dT*dG*dG*dT*eT*eT*eT) [compound 422160]
[1]
  % Inhibition (human Factor 7 mRNA levels): 42%

## 422098 (antisense eG*eG*eA*eG*eA*d[5mC]*dA*dA*dT*dG*dG*dT*d[5mC]*dA*dG*eG*eG*e[5mC]*eT*eG) [compound 422098]
[1]
  % Inhibition (human Factor 7 mRNA levels): 53%

## 422233 (antisense eG*eG*dT*d[5mC]*dA*dG*dG*dG*d[5mC]*dT*dG*dG*dT*dT*dT*eT*eG*eG*eA*eG) [compound 422233]
[1]
  % Inhibition (human Factor 7 mRNA levels): 46%

## 416478 (antisense eG*eT*e[5mC]*eT*e[5mC]*d[5mC]*dA*dG*d[5mC]*dA*dA*dT*dG*dA*dA*eG*eG*e[5mC]*eA*eG) [compound 416478]
[3]
  % Inhibition: 44%

## 416436 (antisense eA*e[5mC]*eT*eG*eG*dT*d[5mC]*d[5mC]*d[5mC]*d[5mC]*dA*dT*d[5mC]*dA*d[5mC]*eT*eG*eT*eA*eA) [compound 416436]
[3]
  % Inhibition: 27%

## 422210 (antisense e[5mC]*eA*eG*d[5mC]*dA*d[5mC]*dA*d[5mC]*dA*dT*dG*dG*dA*dG*dT*d[5mC]*dA*eG*e[5mC]*eA) [compound 422210]
[4]
  % Inhibition (human Factor 7 mRNA levels): 25%

## 407654 (antisense e[5mC]*e[5mC]*eA*e[5mC]*eT*dG*d[5mC]*dA*dG*d[5mC]*d[5mC]*dA*dG*dG*dG*e[5mC]*e[5mC]*eT*eG*eG) [compound 407654]
[2]
  % Inhibition: 34%

## 422230 (antisense e[5mC]*eA*dT*dG*d[5mC]*dA*dT*dG*dG*dT*dG*dA*dT*dG*d[5mC]*eT*eT*e[5mC]*eT*eG) [compound 422230]
Table 13 (microwalk), 50 nM
  % Inhibition: 65%

## 422148 (antisense eG*eG*eA*eG*e[5mC]*d[5mC]*d[5mC]*dG*dA*dG*dT*dT*d[5mC]*dT*dG*e[5mC]*eA*eG*eG*eA) [compound 422148]
  % Inhibition of human Factor 7 mRNA levels: 57%

## 422105 (antisense eT*eG*eG*e[5mC]*eT*dG*dA*dG*dG*dA*dG*dA*d[5mC]*dA*dA*eT*eG*eG*eT*e[5mC]) [compound 422105]
[1]
  % Inhibition (human Factor 7 mRNA levels): 60%

## 403090 (antisense eA*eG*eT*e[5mC]*e[5mC]*dT*dG*dG*dG*dT*d[5mC]*dA*dT*d[5mC]*dA*eG*e[5mC]*e[5mC]*eG*eG) [compound 403090]
[2]
  % Inhibition: 69%

## 422234 (antisense eT*eG*dG*dT*d[5mC]*dA*dG*dG*dG*d[5mC]*dT*dG*dG*dT*dT*eT*eT*eG*eG*eA) [compound 422234]
[1]
  % Inhibition (human Factor 7 mRNA levels): 62%
